Experimental data taken from patent publication US12404279B2, “Deubiquitinase inhibitors and methods of use thereof” (Molecure S.A., priority 2021, dated 2025).
“Also recorded” adds a separate entry of the source.

Legend:
full-length USP7 = full-length USP7 (Homo sapiens (Human), UniProt Q93009); assay: Enzymatic assay to determine IC50 of USP7 inhibitors (Ubiquitin-Rhodamine 110 cleavage); type: biochemical; settings: 0.5 nM USP7, 0.5 μM Ubiquitin-Rhodamine 110, 45 min at 37° C.
In short: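 Enzyme: 0.5 nM full-length USP7 in HEPES pH 7.5 buffer with NaCl, DTT, BSA and Tween20, given 15 min at room temperature with DTT before compounds were added.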

[1] = Immunomodulatory effect on isolated, anti-CD3/anti-CD28 activated CD4+ T cells from C57BL/6 mice; type: cell-based; settings: C57BL/6; activated mouse CD4+ T cells, 72 h; read-out: cytotoxicity IC50 (cell viability, CellTiter Glo Assay)
Text: (§1) Splenocytes from three C57BL/6 mice donors were isolated separately. Next, specific CD4^+ cells were extracted from all splenocytes with EasySep™ Mouse CD4^+ T cell Isolation Kit by negative selection (StemCell; Cat. #19852). The purity of splenic CD4^+ T cells exceeded 95%, as confirmed by flow cytometric analysis following staining with anti-mouse CD3 and CD4 antibodies. Pure CD4^+ cells were subsequently seeded in RPMI full medium (50 000 cells/well) on 96-well U-bottom plate covered with 1 μg/mL antiCD3 and 1 μg/mL antiCD28 (for stimulation and activation). Then. […] The final concentration of DMSO in wells was 0.03%. After 72 h, lymphocyte activation was evaluated by counting, testing viability (LDH Assay, CellTiter Glo Assay) and cytokine. Statistical significance of observed effects was determined based on mean values calculated from technical replicates for each mouse (n=9; experiment was performed three times). • 1. ATP level in cell lysates (CellTiterGlo Viability Assay. Promega;) • 2. LDH level in cell culture medium • 3. Cell counting (Orange-Acridine staining, Luna automated cell counter, Logos Biosystems) • 4. mTNF-α in supernatants (ELISA) • 5. mIFN-γ in supernatants (ELISA) • 6. Magpix Luminex (T-Cells Panel: GM-CSF, IFN-γ, IL-10 TNF-α)

CD4+ T cells [2] = assay: as above; type: cell-based
Text: as §1

CD4+ T cells [3] = assay: In vivo and ex vivo immunomodulatory effect in BALB/c mice (splenic CD4+ T cells); type: cell-based
Protocol: BALB/c mice (10-week-old females, n=3) were administered with Example 77 at 200 mg/kg (BID) by oral gavage for 3 consecutive days. Untreated mice were used as the control group (n=3). Animals were sacrificed 16 hours following the last dosing. The spleens were collected and total CD4^+ lymphocytes were isolated by bead-based negative separation according to the manufacturers manual (EasySep™ Mouse CD4+ T cell Isolation Kit, StemCell; Cat. #19852). The purity of splenic CD4^+ T cells exceeded 95%, as confirmed by flow cytometric analysis following staining with anti-mouse CD3 and CD4 antibodies. Isolated CD4^+ T cells were seeded in triplicates (50 000 cells/well in RPMI full medium) on 96-well U-bottom plate covered with 1 μg/mL anti-CD3 and 1 μg/mL anti-CD28 antibodies (for stimulation and activation of cells). Following one hour preincubation in 37° C. degree, CD4^+ T cells were treated with 2 μM of Example 77, the final concentration of DMSO in wells was 0.03%. After 72 h lymphocytes activation was evaluated by testing viability, cytotoxicity and cytokine release: mTNF-α and mIFN-γ.
• 1. ATP level in cell lysates (CellTiterGlo Viability Assay, Promega) • 2. Lactate dehydrogenase (LDH) level in cell culture medium (LDH-Glo Cytotoxicity Assay, Promega) • 3. Cell counting (Fluorescence staining, Luna automated cell counter, Logos Biosystems) • 4. mTNF-α in supernatants by ELISA • 5. mIFN-γ in supernatants by ELISA

CT26 cells = assay: Killing assay: splenocytes of tumor-bearing mice co-cultured with CT26 cells; type: cell-based, mouse; settings: co-culture with CT26 cells 1:10 and 1:50, 36 h
Protocol: To investigate the killing capability of T cells the splenocytes were isolated from tumor-bearing mice treated and untreated with different concentrations of Example 77. CT26 cells were seeded and stained with Green Cell Tracker. Stained CT26 cells were co-cultured with splenocytes from experimental animals in two ratios 1:10 and 1:50. After 36 h cells were harvested and analyzed on the flow cytometer.

mouse CD8+ T cells = assay: Cytotoxic effect on mouse CD8+ T cells (splenocytes, flow cytometry); type: cell-based; settings: 24 hours of incubation
Protocol: In these experiments, the mouse splenocytes were seeded into in 24-well plate and after 24 hours of incubation with USP7 inhibitors the T cells viability was analyzed with flow cytometry. […] Mann-Whitney test.

[4] = system: CT26 model of colon carcinoma; assay: Antitumor efficacy in the subcutaneous CT26 syngeneic model of colon carcinoma
Protocol: The 7-8-week old BALB/c females (BALB/cAnNCrl, Charles River Laboratories) were injected subcutaneously in the right flank with 5×10^5 CT26 cells. USP7 inhibitors were dosed by oral gavage twice per day at indicated doses starting from 2-5 days after the tumor implantation. […] Tumor volume was estimated by a formula: width×length×depth×π/6.

[5] = 0.5-2.5 μM, 72 h, ELISA / Magpix Luminex
[6] = 0.5-2.5 μM, 72 h, Magpix Luminex
[7] = 2 μM, 72 h, LDH-Glo cytotoxicity assay

full-length USP7, sequence (Q93009 whole entry): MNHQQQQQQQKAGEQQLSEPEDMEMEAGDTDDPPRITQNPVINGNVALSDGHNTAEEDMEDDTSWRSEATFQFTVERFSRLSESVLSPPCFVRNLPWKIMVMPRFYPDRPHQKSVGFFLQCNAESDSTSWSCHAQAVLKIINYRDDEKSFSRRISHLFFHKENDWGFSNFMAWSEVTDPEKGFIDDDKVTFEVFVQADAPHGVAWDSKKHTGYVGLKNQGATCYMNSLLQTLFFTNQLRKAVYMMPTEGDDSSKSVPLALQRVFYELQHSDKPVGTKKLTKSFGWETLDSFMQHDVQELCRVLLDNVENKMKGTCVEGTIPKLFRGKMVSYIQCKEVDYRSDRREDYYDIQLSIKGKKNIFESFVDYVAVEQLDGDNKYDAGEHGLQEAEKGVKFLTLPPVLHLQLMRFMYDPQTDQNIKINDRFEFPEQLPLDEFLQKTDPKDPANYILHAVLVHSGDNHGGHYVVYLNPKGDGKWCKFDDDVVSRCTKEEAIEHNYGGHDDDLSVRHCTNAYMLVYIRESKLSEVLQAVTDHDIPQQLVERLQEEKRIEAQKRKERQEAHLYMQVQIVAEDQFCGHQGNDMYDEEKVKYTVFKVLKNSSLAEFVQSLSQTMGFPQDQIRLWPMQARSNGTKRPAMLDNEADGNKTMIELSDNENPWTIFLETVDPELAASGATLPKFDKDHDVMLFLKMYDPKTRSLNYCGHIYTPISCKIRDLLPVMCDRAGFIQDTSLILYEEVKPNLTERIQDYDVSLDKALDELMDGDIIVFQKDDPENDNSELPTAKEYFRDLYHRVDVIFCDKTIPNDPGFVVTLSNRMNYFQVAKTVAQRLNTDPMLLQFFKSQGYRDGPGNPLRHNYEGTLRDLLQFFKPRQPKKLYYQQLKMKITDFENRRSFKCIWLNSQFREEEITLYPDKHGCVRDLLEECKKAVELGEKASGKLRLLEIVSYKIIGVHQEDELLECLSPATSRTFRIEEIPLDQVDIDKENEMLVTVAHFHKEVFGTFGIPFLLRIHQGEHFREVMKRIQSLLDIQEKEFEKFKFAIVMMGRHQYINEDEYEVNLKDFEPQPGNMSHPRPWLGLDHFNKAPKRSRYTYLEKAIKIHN

Q: Which IC50 (full-length USP7) does the source give for `CN[C@H]1CCN(C(=O)c2c(C)cc(C(F)(F)F)nc2-c2ccnc3cc(CN4C(=O)C5C(C4=O)C5(C)C)sc23)C1.Cl.Cl` (stereo partly drawn) [Example 77, 6,6-dimethyl-3-((7-(4-methyl-3-((S)-3-(methylamino)pyrrolidine-1-carbonyl)-6-(trifluoromethyl)pyridin-2-yl)thieno[3,2-b]pyridin-2-yl)methyl)-3-azabicyclo[3.1.0]hexane-2,4-dione dihydrochloride] here?
A: Its IC50 is under 0.5 µM.

Q: What about the IC50 at 72 h [1] of the same compound?
A: The IC50 at 72 h was about 9 µM.

Q: And the “IFNg level in supernatants” value (CD4+ T cells [2]; [5])?
A: Its value is “Statistically significant increase”.

Q: And the “TNFa level in supernatants” value (CD4+ T cells [2]; [5])?
A: Its value is “not affected”.

Q: And the “GM-CSF level in supernatants” value (CD4+ T cells [2]; [6])?
A: Its value is “Statistically significant increase”.

Q: And the “IL-10 level in supernatants” value (CD4+ T cells [2]; [6])?
A: Its value is “not affected”.

Q: What about the “times less cytotoxic than the reference RAPT compound” value (CD4+ T cells [2]; CellTiter Glo Assay, head to head) of the same compound?
A: Its value is 10.

Q: What about the “viability by cell counting (Luna cell counter, trypan blue)” value (CD4+ T cells [2]; after 72 h of incubation) of the same compound?
A: Its value is “comparable to that obtained with CellTiter Glo”.

Q: And the “CD4+ T cells activation and pro-inflammatory cytokine release” value (CD4+ T cells [2]; low concentration (0.5-2.5 μM))?
A: Its value is “does not disturb”.

Q: And the “pro-inflammatory cytokines release after additional ex vivo treatment of isolated T-cells” value (CD4+ T cells [3]; 2 μM ex vivo, 72 h)?
A: Its value is “additionally increases”.

Q: What about the “total ATP level (CellTiter Glo Assay)” value (CD4+ T cells [3]; 2 μM, 72 h) of the same compound?
A: The value was “didn't affect”.

Q: And the “CD4+ T cells activation and pro-inflammatory cytokines release: TNF-α and IFN-γ” value (CD4+ T cells [3]; 2 μM, 72 h, ELISA)?
A: Its value is “does not affect”.

Q: And the “LDH concentration in the culture medium vs. positive control” value (CD4+ T cells [3]; [7])?
A: The value was at most 5%.

Q: And the “cytotoxicity for CD4+ T-cells” value (CD4+ T cells [3]; [7])?
A: Its value is “not cytotoxic”.

Q: What about the T cells viability (CD4+ T cells [3]; CD4+ T cells, 2 μM, 72 h) of the same compound?
A: Its T cells viability is “does not affect”.

Q: And the “ex vivo pro-inflammatory cytokine release of activated CD4+ T cells from treated mice vs. control mice” value (CD4+ T cells [3]; mice dosed 200 mg/kg BID by oral gavage for 3 days)?
A: The value was “much more”.

Q: And the “killing capability of splenocytes from treated CT26-bearing mice vs. control mice” value (CT26 cells)?
A: Its value is “enhanced killing capability”.

Q: What about the “cytotoxicity to CD8 T cells” value (mouse CD8+ T cells) of the same compound?
A: Its value is “limited”.

Q: And the TGI ([4]; 100 mg/kg PO BID, anti-PD-1 combination experiment)?
A: The TGI was 69%.

Q: What about the “increase in survival time vs. anti-PD-1 monotherapy group” value ([4]; 100 mg/kg PO BID, log-rank test) of the same compound?
A: Its value is 26%.

Q: What about the “percent of CD8+ T cells in tumor” value ([4]; 100 mg/kg, cytometric analysis) of the same compound?
A: Its value is “increase”.

Q: What about the “interferon-γ production in CD8+ T cells” value ([4]; 100 mg/kg, data not shown) of the same compound?
A: Its value is “enhanced amounts”.

Q: What about the “granzyme B production in CD8+ T cells” value ([4]; 100 mg/kg, flow cytometry) of the same compound?
A: The value was “enhanced amounts”.

Q: What about the “antitumor effect after injection of CD8-depleting anti-CD8 antibodies” value ([4]; anti-CD8 antibody 100 μg intraperitoneally on days 1, 7 and 14, dihydrochloride) of the same compound?
A: Its value is “completely abrogated; also recorded: requires CD8+ T cells”.

Q: What about the “effect on the therapeutic effect of anti-PD-1 antibody” value ([4]; combination with anti-PD-1 antibody, dihydrochloride) of the same compound?
A: Its value is “potentiated; also recorded: increases the efficiency”.

Q: And the “tumor growth inhibition (TGI)” value ([4]; dose-dependent, oral gavage BID, day 20 post-inoculation, p=0.048)?
A: Its value is “up to 67%”.

Q: What about the survival time ([4]; survival analysis, anti-PD-1 combination experiment) of the same compound?
A: Its survival time is 29 days.
